# Molecular target: Gastrin/cholecystokinin type B receptor (Cavia porcellus)
# Assay: In vitro affinity to the cholecystokinin type B receptor in guinea pig cortex assayed using [125I]BH-CCK-8 as radioligand
row,SMILES,IC50 [nM]
1,"Cc1cccc(NC(=O)N[C@@H]2C[C@H](c3ccccc3)c3ccccc3N(CC(=O)NC(C)(C)C)C2=O)c1 [N-tert-Butyl-2-[(3R,5R)-2-oxo-5-phenyl-3-(3-m-tolyl-ureido)-2,3,4,5-tetrahydro-benzo[b]azepin-1-yl]-acetamide]",10.1
2,"Cc1ccccc1NC(=O)N[C@@H]1C[C@H](c2ccccc2)c2ccccc2N(CC(=O)NC(C)(C)C)C1=O [N-tert-Butyl-2-[(3R,5R)-2-oxo-5-phenyl-3-(3-o-tolyl-ureido)-2,3,4,5-tetrahydro-benzo[b]azepin-1-yl]-acetamide]",55
3,"Cc1ccc(NC(=O)N[C@@H]2C[C@H](c3ccccc3)c3ccccc3N(CC(=O)NC(C)(C)C)C2=O)cc1 [N-tert-Butyl-2-[(3R,5R)-2-oxo-5-phenyl-3-(3-p-tolyl-ureido)-2,3,4,5-tetrahydro-benzo[b]azepin-1-yl]-acetamide]",35
4,"Cc1ccc2c(c1)[C@@H](c1ccccc1)C[C@@H](NC(=O)Nc1cccc(Cl)c1)C(=O)N2CC(=O)NC(C)(C)C [N-tert-Butyl-2-{(3R,5R)-3-[3-(3-chloro-phenyl)-ureido]-7-methyl-2-oxo-5-phenyl-2,3,4,5-tetrahydro-benzo[b]azepin-1-yl}-acetamide]",32
5,"COc1cccc(NC(=O)N[C@@H]2C[C@H](c3ccccc3)c3ccccc3N(CC(=O)NC(C)(C)C)C2=O)c1 [N-tert-Butyl-2-{(3R,5R)-3-[3-(3-methoxy-phenyl)-ureido]-2-oxo-5-phenyl-2,3,4,5-tetrahydro-benzo[b]azepin-1-yl}-acetamide]",30.4
6,"CC(C)(C)NC(=O)CN1C(=O)[C@H](NC(=O)Nc2cccc(Cl)c2)C[C@H](c2ccccc2)c2cc(Cl)ccc21 [N-tert-Butyl-2-{(3R,5R)-7-chloro-3-[3-(3-chloro-phenyl)-ureido]-2-oxo-5-phenyl-2,3,4,5-tetrahydro-benzo[b]azepin-1-yl}-acetamide]",24

# Stronger by IC50, values ahead:
row,IC50 [nM],SMILES
1,7.6,"CCC(C)(C)NC(=O)CN1C(=O)[C@H](NC(=O)Nc2cccc(Cl)c2)C[C@H](c2ccccc2)c2ccccc21 [2-{(3R,5R)-3-[3-(3-Chloro-phenyl)-ureido]-2-oxo-5-phenyl-2,3,4,5-tetrahydro-benzo[b]azepin-1-yl}-N-(1,1-dimethyl-propyl)-acetamide]"
2,1.4,"Cc1ccc2c(c1)N(CC(=O)NC(C)(C)C)C(=O)[C@H](NC(=O)Nc1cccc(Cl)c1)C[C@@H]2Cc1ccccc1 [2-{(3R,5S)-5-Benzyl-3-[3-(3-chloro-phenyl)-ureido]-8-methyl-2-oxo-2,3,4,5-tetrahydro-benzo[b]azepin-1-yl}-N-tert-butyl-acetamide]"
3,1.5,"CN(C(=O)CN1C(=O)[C@H](NC(=O)Nc2cccc(Cl)c2)C[C@H](c2ccccc2)c2ccccc21)C(C)(C)C [N-tert-Butyl-2-{(3R,5R)-3-[3-(3-chloro-phenyl)-ureido]-2-oxo-5-phenyl-2,3,4,5-tetrahydro-benzo[b]azepin-1-yl}-N-methyl-acetamide]"
4,0.6,"Cc1ccc2c(c1)N(CC(=O)NC(C)(C)C)C(=O)[C@H](NC(=O)Nc1cccc(Cl)c1)C[C@@H]2C1CCCCC1 [N-tert-Butyl-2-{(3R,5R)-3-[3-(3-chloro-phenyl)-ureido]-5-cyclohexyl-8-methyl-2-oxo-2,3,4,5-tetrahydro-benzo[b]azepin-1-yl}-acetamide]"
5,3.4,"Cc1ccc2c(c1)N(CC(=O)NC(C)(C)C)C(=O)[C@H](NC(=O)Nc1cccc(Cl)c1)C[C@@H]2C(C)C [N-tert-Butyl-2-{(3R,5R)-3-[3-(3-chloro-phenyl)-ureido]-5-isopropyl-8-methyl-2-oxo-2,3,4,5-tetrahydro-benzo[b]azepin-1-yl}-acetamide]"
6,4,"CC(C)(C)NC(=O)CN1C(=O)[C@H](NC(=O)Nc2cccc(Cl)c2)C[C@H](c2cccc(Cl)c2)c2ccccc21 [N-tert-Butyl-2-{(3R,5R)-5-(3-chloro-phenyl)-3-[3-(3-chloro-phenyl)-ureido]-2-oxo-2,3,4,5-tetrahydro-benzo[b]azepin-1-yl}-acetamide]"
7,2.5,"Cc1cccc(NC(=O)N[C@@H]2C[C@H](c3ccccc3)c3ccccc3N(CC(=O)OC(C)(C)C)C2=O)c1 [[(3R,5R)-2-Oxo-5-phenyl-3-(3-m-tolyl-ureido)-2,3,4,5-tetrahydro-benzo[b]azepin-1-yl]-acetic acid tert-butyl ester]"
8,2.2,"Cc1ccc2c(c1)N(CC(=O)OC(C)(C)C)C(=O)[C@H](NC(=O)Nc1cccc(Cl)c1)C[C@@H]2c1ccccc1 [{(3R,5R)-3-[3-(3-Chloro-phenyl)-ureido]-8-methyl-2-oxo-5-phenyl-2,3,4,5-tetrahydro-benzo[b]azepin-1-yl}-acetic acid tert-butyl ester]"
